# Patent US10781183B2, “Small molecule inducers of reactive oxygen species and inhibitors of mitochondrial activity” (The Regents of the University of Michigan, priority 2016, dated 2020)
# Counter-ions that a name gives are not always drawn. Like-named read-outs stand apart in the source and are kept apart here.
# What was measured:
# BxPC-3 cells = assay: MTT cytotoxicity assay, BxPC-3; assay type: cell-based; conditions: Homo sapiens, three independent experiments
# Procedure: (§1) MiaPaCa-2, Panc-1 and BxPC-3 pancreatic cancer cell lines were obtained from the ATCC. Normal pancreatic cells HPDE and HPNE were kindly provided (Translational Oncology Program, University of […], Ann Arbor, Mich.). Gemcitabine resistant cell line MiaPaCa-2-GR (gemcitabine resistant) was kindly provided (Department of Pathology, Wayne State University, Detroit, Mich.). All cell lines were cultured as monolayer and maintained in RPMI1640 supplemented with 10% fetal bovine serum (FBS) in a humidified atmosphere with 5% CO2 at 37° C. MiaPaCa-2-GR culture was supplemented with 200 nM gemcitabine.
# (§2) Cytotoxicity of compounds was evaluated with 3-(4,5-dimethylthiazol-2-yl)-2,5-diphenyltetrazolium bromide (MTT) assay. Cells were placed in 96-well plate at 3000-8000 cells/well. After overnight attachment, compounds were added to the wells at sequential dilutions (30 nM-10 μM for most cell lines). After 72 h treatment, MTT was added into the media to a final concentration of 300 μg/mL. Cells were incubated for 3 h at 37° C., and the insoluble formazan converted by viable cells were dissolved in 150 μL of DMSO. Absorbance at 570 nm was read by microplate reader (Molecular devices, Sunnyvale, Calif.), and inhibition of cell proliferation was calculated using the following formula: Inhibition of cell proliferation (%)=(1−ODtreatment/ODcontrol)×100%
# pancreatic cancer = conditions: cited from earlier work
# Panc-1 cells = assay: MTT cytotoxicity assay, Panc-1; assay type: cell-based; conditions: Homo sapiens, three independent experiments
# Procedure: as §1, §2
# MiaPaCa-2 cells [1] = assay: MTT cytotoxicity assay, MiaPaCa-2; assay type: cell-based; conditions: MTT assay; for IC50: Homo sapiens, Mean ± SD, three independent experiments; for cytotoxicity in presence of NAC: NAC 5 mM (FIG. 3C)
# Procedure: as §1, §2
# MiaPaCa-2 xenograft = MiaPaCa-2 xenograft studies; assay type: in vivo, NOD/SCID mice; conditions: QD325 5 mg/kg five times a week; gemcitabine 15 mg/kg once a week; control 1503±189 mm^3
# Procedure: MiaPaCa-2 cells (2.0×10^6) in a 100 μL suspension of RPMI1640 was injected subcutaneously into dorsal flank of 6-week NOD/SCID mice. Tumor size was monitored twice a week through caliper measurement using the following equation: V=d^2×D/2, where d represents width and D represents length of the tumor. In study 1, mice were randomly grouped (n=5 per group) when average tumor size reached 65 mm^3. Daily treatment was given at five days on two days off cycles. QD325 was given at 5 mg/kg in 100 μL vehicle (5% DMSO, 60% Propylene glycol, 35% Saline) by intraperitoneal injection. […] Unpaired t test was performed for data analysis and p<0.05 was considered significant. […] Procedures for study 2 with gemcitabine treatment are detailed in supplemental information.
# On necropsy, tumors, hearts, kidneys, livers, lungs, spleens and pancreases were collected, fixed in 10% neutral buffered formalin, embedded in paraffin, and sectioned. Sections ([…]) were stained with hematoxylin and eosin to facilitate histologic examination. For Ki67 expression level, immunohistochemistry staining was performed on sections with Ki67 antibody. Embedding, sectioning and staining of samples were performed by ULAM pathology core for animal research at the University of Michigan. Representative images were taken on Olympus IX83 microscope with 20× magnification.
# [2] = test system: mtDNA content in MiaPaCa-2 cells; assay: Measurement of mtDNA content by qPCR; assay type: cell-based; conditions: MiaPaCa-2, 6 h; 12S rRNA vs genomic 18S rRNA (FIG. 11B)
# Procedure: To assess mtDNA content, genomic DNA was isolated with QIAamp® DNA mini kit (Qiagen, Germantown, Md.) from MiaPaCa-2 cells. The mtDNA content was evaluated by co-amplifying a DNA fragment encoding mitochondrial 12S rRNA (forward primer: 5′-[…]-3′; reverse primer: 5′-TGCGCTTACTTTGTAG CCTTCAT-3′) and a DNA fragment encoding the nuclear 18S rRNA (forward primer: 5′-CCCTGCC CTTTGTACACACC-3′; reverse primer: 5′-GATCCGAGGGCCTCACTA-3′). (Vadrot et al., 2012) Real-time qPCR was performed on Viia7 cycler (Applied Biosystems). Amplifications were monitored and analyzed by measuring the intercalation of the fluorescent dye from Fast SYBR® Green Master Mix (Applied Biosystems). Relative mtDNA contents were calculated using 18S rRNA as gene reference.
# MiaPaCa-2 cells [3] = assay: ROS detection assay (H2DCFDA probe); assay type: cell-based; conditions: for ROS induction after NAC pretreatment: NAC 5 mM for 30 min pretreatment (FIG. 3B); for ROS induction compared with lead compound QD232: MiaPaCa-2, 24 h treatment, 10 μM (FIG. 1C)
# Procedure: To quantify ROS induction by redox modulators, a high throughput ROS assay in 384-well plates using H2DCFDA as the ROS detection probe was developed (FIG. 1A).
# Cells were detached by 0.05% trypsin-EDTA, neutralized, centrifuged (1200 rpm, 5 min) and resuspended in cell culture media. Suspension were then treated with 20 μM cell permeable H2DCFDA for 30 min at 37° C. Cells were then centrifuged (1200 rpm, 5 min) and washed with cell culture media to remove excess probe. After washing, cells were placed in black-wall 384-well plate at 20,000 cells/well, incubated for 30 min and treated by compounds at designated conditions. Fluorescent signal were then read at 493 nm/523 nm on BioTek H1 plate reader for ROS detection.
# MiaPaCa-2 cells [4] = assay: Bru-seq analysis for nascent RNA synthesis; assay type: cell-based; conditions: Bru-seq
# From the text: A bromouridine labeled RNA sequencing (Bru-seq) technique was used to better characterize molecular mechanisms of these novel agents. Bru-seq is able to capture real-time synthesis of the nascent RNA, so as to provide information on global gene transcription without interference by RNA stability or biased gene selection (Paulsen et al., 2014, Paulsen et al., 2013). […] Profiling of all genes with >1.5-fold change in expression upon treatment of QD232 or QD325 identified NRF2-mediated oxidative stress response and unfolded protein response (UPR) as key pathways implicated in drug action (FIG. 8A).
# Bru-seq analysis was performed as previously reported (Paulsen et al., 2014). Briefly, 4×10^6 MiaPaCa-2 cells were placed in 10 cm dishes on Day 1. On Day 2, cells were treated with DMSO, QD232 or QD325 for 4 h. Bromouridine was added into the media to label newly synthesized nascent RNA in the last 30 min of treatment to a final concentration of 2 mM. Cells were then collected in TRIZOL and total RNA was isolated. Bromouridine containing RNA population was further isolated and sent for sequencing. Sequencing reads were mapped to the HG19 reference genome. Pre-ranked gene lists were generated for each treatment through ranking genes by fold changes in gene synthesis levels compared with control, and analyzed with GSEA (Broad Institute, MA) (Subramanian et al., 2005, Mootha et al., 2003)
# [5] = BXPC-3, 72 h, Table 1, 72 h, Mean ± SD
# [6] = metastatic pancreatic cancer, gemcitabine group vs FOLFIRINOX group (Conroy et al., 2011)
# [7] = PANC-1, 72 h, Table 1, 72 h, Mean ± SD
# [8] = MIA PaCa-2, 72 h, Table 1, 72 h
# [9] = BXPC-3, Table 2, Mean ± SD, read-out: IC 50 BxPC-3
# [10] = PANC-1, Table 2, Mean ± SD, read-out: IC 50 Panc-1
# [11] = MIA PaCa-2, Table 2, read-out: IC 50 MiaPaCa-2
Molecule,IC50 (BxPC-3 cells; [5]),IC50 (Panc-1 cells; [7]),IC50 (MiaPaCa-2 cells [1]; [8]),IC50 (BxPC-3 cells; [9]),melting point,IC50 (Panc-1 cells; [10]),IC50 (MiaPaCa-2 cells [1]; [11]),further results
"Nc1ccn([C@@H]2O[C@H](CO)[C@@H](O)C2(F)F)c(=O)n1 [Gemcitabine, 2′-deoxy-2′, 2′-difluorocytidine monohydrochloride (b-isomer), reference compound]",50 ± 20 nM,200 ± 100 nM,110 ± 70 nM,–,–,–,–,"median overall survival (pancreatic cancer; [6]): 6.8 months; median overall survival (pancreatic cancer; pancreatic cancer patients, addition of nab-paclitaxel to gemcitabine (Von Hoff et al., 2013)): 6.7 months; average tumor size at the end of the 48-day treatment period (MiaPaCa-2 xenograft): 387±74 mm^3"
"OO [H2O2, reference compound]",–,–,–,–,–,–,–,mtDNA content 6 hours after treatment [2]: small but significant decrease in mtDNA content; ROS induction after NAC pretreatment (MiaPaCa-2 cells [3]; MiaPaCa-2): blocked; cytotoxicity in presence of NAC (MiaPaCa-2 cells [1]; 72 h): decreased cytotoxicity
"COc1cc(NC2=CC(=O)c3ncncc3C2=O)cc(OC)c1OC [QD326, 6-((3,4,5-trimethoxyphenyl)amino)quinazoline-5,8-dione]",1600 ± 300 nM,800 ± 100 nM,1500 ± 100 nM,1600 ± 300 nM,161 to 162 °C,800 ± 100 nM,1500 ± 100 nM,"ROS induction compared with lead compound QD232 (MiaPaCa-2 cells [3]): significantly higher ROS induction than the lead compound QD232; accumulation of ROS (MiaPaCa-2 cells [3]; MiaPaCa-2, 10, 3.3 or 1.1 μM (FIG. 3A)): time- and dose-dependent accumulation of ROS; ROS accumulation at 10 and 3.3 μM (MiaPaCa-2 cells [3]; MiaPaCa-2, 10 and 3.3 μM): rapid and high ROS accumulation; ROS induction after NAC pretreatment (MiaPaCa-2 cells [3]; MiaPaCa-2): inhibited; cytotoxicity in presence of NAC (MiaPaCa-2 cells [1]; 72 h): decreased cytotoxicity"
"CCc1ccc(-c2ccc(NC3=CC(=O)c4ncncc4C3=O)cc2)cc1 [QD335, 6-((4′-ethyl-[1,1′-biphenyl]-4-yl)amino)quinazoline-5,8-dione]",3100 ± 700 nM,1200 ± 100 nM,2000 ± 100 nM,3100 ± 700 nM,232 °C,1200 ± 100 nM,2000 ± 100 nM,ROS induction compared with lead compound QD232 (MiaPaCa-2 cells [3]): significantly higher ROS induction than the lead compound QD232
"O=C1C(NCc2ccc(F)cc2)=CC(=O)c2ncncc21 [QD356, 6-((4-fluorobenzyl)amino)quinazoline-5,8-dione]",1400 ± 200 nM,1000 ± 100 nM,1700 ± 200 nM,1400 ± 200 nM,203 °C,1000 ± 100 nM,1700 ± 200 nM,–
"Nc1cccc(C(=O)NCCC[P+](c2ccccc2)(c2ccccc2)c2ccccc2)c1.[Br-] [QD358, (3-(3-aminobenzamido)propyl)triphenylphosphonium bromide]",–,> 30000 nM,–,> 30000 nM,223 °C,> 30000 nM,> 30000 nM,–
"CC[C@@]1(O)C(=O)OCc2c1cc1n(c2=O)Cc2cc3ccccc3nc2-1 [camptothecin, reference compound]",–,–,–,–,–,–,–,transcription of mtDNA from mitochondrial promoters HSP2 and LSP on D-loop (MiaPaCa-2 cells [4]): no such effect was observed
FOLFIRINOX,–,–,–,–,–,–,–,median overall survival (pancreatic cancer; [6]): 11.1 months
